This is an account of results in patent US9481670B2, “Triazine compounds” (Sphaera Pharma PTE. Ltd., priority 2011, dated 2016).

pIC50: −log10 of the molar value.

The target of the experiment is T1, PI3K alpha (Homo sapiens, UniProt P42336).
T1 construct: purchased Millipore Upstate
T1 sequence (P42336 whole entry): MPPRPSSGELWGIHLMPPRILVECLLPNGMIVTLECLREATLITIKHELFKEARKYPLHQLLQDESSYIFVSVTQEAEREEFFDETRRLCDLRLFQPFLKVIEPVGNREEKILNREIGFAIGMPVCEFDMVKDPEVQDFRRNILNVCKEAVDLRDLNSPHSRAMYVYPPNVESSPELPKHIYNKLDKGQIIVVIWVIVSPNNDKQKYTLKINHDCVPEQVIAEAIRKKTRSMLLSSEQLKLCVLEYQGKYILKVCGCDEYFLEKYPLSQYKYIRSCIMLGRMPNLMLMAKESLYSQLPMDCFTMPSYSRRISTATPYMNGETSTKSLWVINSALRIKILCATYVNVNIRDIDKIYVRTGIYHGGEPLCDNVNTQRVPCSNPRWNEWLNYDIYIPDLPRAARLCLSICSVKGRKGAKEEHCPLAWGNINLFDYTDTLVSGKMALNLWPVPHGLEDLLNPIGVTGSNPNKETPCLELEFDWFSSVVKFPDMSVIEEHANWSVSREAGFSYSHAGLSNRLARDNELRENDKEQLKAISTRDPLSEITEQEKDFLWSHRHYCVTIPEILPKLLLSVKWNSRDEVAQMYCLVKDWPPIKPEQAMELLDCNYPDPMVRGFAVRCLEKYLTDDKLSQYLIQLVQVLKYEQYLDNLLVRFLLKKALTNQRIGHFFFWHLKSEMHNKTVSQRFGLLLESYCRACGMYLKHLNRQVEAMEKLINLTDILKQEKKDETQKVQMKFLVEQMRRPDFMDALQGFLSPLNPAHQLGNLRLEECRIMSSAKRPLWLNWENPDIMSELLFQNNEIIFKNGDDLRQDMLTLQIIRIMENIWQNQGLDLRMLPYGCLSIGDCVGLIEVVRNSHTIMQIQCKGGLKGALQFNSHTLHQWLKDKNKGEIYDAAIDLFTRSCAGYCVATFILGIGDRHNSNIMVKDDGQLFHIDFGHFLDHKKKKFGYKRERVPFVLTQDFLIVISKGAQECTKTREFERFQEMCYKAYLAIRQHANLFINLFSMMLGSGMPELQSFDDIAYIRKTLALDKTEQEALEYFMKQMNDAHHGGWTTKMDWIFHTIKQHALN
T1 sequence (P27986 whole entry partner): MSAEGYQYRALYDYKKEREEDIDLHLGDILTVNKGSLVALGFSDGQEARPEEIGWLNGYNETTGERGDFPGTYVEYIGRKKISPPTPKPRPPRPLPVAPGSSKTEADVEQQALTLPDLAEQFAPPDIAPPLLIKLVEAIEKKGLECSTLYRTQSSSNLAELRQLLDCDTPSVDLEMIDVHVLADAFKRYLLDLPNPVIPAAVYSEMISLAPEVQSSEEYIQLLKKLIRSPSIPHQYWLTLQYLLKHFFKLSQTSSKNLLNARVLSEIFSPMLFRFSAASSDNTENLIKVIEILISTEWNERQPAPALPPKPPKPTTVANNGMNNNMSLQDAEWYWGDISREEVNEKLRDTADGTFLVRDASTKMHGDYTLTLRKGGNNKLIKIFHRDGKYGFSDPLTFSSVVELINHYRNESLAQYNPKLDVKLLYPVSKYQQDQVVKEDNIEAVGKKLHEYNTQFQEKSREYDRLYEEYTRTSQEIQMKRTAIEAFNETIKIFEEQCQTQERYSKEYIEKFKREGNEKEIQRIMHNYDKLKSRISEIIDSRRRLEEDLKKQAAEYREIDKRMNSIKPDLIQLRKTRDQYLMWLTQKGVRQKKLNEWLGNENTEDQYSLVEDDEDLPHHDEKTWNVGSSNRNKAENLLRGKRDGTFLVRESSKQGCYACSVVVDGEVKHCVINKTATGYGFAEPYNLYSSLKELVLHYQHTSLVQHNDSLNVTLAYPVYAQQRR
The experiment in a line: P110 Alpha TR-FRET Assay (PI3K alpha kinase assay, HTRF Transcreener ADP Assay). In kind it is biochemical. Particulars: PI3K (WT). On the procedure:
PI3K alpha kinase assay may be done using HTRF Transcreener ADP Assay (Cisbio).
Composition of the reaction buffer was as follows 50 mM HEPES, pH 7.5, 5 mM MgCl2, 1 mM DTT, 30 μM Na3VO4. PI3 Kinase was procured from Millipore Upstate. […] ATP was used at final concentration of 10 μM. Corning 384 well white plates were used for the assay.
2 μl of diluted enzyme (50 ng), 3 μl of diluted compound and 5 μl of buffer were added, mixed then incubated for 20 minutes with shaking at 400 rpm. 3 μl of substrate (10 μM of ATP and 5 μM PIP2) were added to initiate the reaction. The samples were incubated for 20 min. At the end of the reaction time 10 μl of the Detection mix (5 μl of ADP-D2 and 5 μl of Anti-ADP-Cryptate) was added and the contents were incubated for 1 h. The reaction plate was directly read in an Envision Multilabel Plate Reader.
The molecule `O=C1CCc2cc(Oc3nc(-c4cccc5[nH]ncc45)nc(N4CCOCC4)n3)ccc2N1` [Compound 1063, 6-14-{[4-1-(1H-indazol-4-yl)-6-5-(morpholin-4-yl)-1,3,5-triazin-2-yl]oxy}-1,2,3,4-tetrahydroquinolin-2-one] gave a pIC50 greater than 5.30. Under `CN(C)C(=O)c1ccc(Oc2nc(-c3cccc4[nH]ccc34)nc(N3CCOCC3)n2)cc1` [Compound 1064, 4-14-{[4-1-(1H-indol-4-yl)-6-5-(morpholin-4-yl)-1,3,5-triazin-2-yl]oxy}-N,N-dimethylbenzamide] stands greater than 5.30; under `CN(C)C(=O)c1ccc(Nc2nc(-c3ccc(N)nc3)nc(N3CCOCC3)n2)cc1` [Compound 1065, 4-((4-(6-aminopyridin-3-yl)-6-morpholino-1,3,5-triazin-2-yl)amino)-N,N-dimethylbenzamide], greater than 5.30. Regarding `C[C@H](Nc1nc(-c2cccc(NS(C)(=O)=O)c2)nc(N2CCOCC2)n1)C(=O)N1CCN(S(C)(=O)=O)CC1` [Compound 1066, N-[3-16-(4-1-{[(2S)-1-(4-30-methanesulfonylpiperazin-1-yl)-1-oxopropan-2-yl]amino}-6-2-(morpholin-4-yl)-1,3,5-triazin-2-yl)phenyl]methanesulfonamide], the negative logarithm of the IC50 (pIC50) was less than 5.30.

Molecule `CN(C)C(=O)c1cc(Oc2nc(-c3cccc4[nH]ncc34)nc(N3CCOCC3)n2)cs1` [Compound 1067, 4-14-{[4-1-(1H-indazol-4-yl)-6-5-(morpholin-4-yl)-1,3,5-triazin-2-yl]oxy}-N,N-dimethylthiophene-2-carboxamide] showed a negative logarithm of the IC50 (pIC50) greater than 5.30.

Molecule `CN(C)C(=O)c1ccc(Oc2nc(-c3cccc4[nH]ncc34)nc(N3C4CCC3COC4)n2)cc1` [Compound 1068, 4-9-{[4-1-(1H-indazol-4-yl)-6-5-{3-oxa-8-azabicyclo[3.2.1]octan-8-yl}-1,3,5-triazin-2-yl]oxy}-N,N-dimethylbenzamide] gave a negative logarithm of the IC50 (pIC50) of less than 5.30. Under `CN(C)C(=O)NC1CCN(c2nc(-c3ccc(N)nc3)nc(N3CCOCC3)n2)CC1` [Compound 1069, 1-{1-7-[4-3-(6-16-aminopyridin-3-yl)-6-5-(morpholin-4-yl)-1,3,5-triazin-2-yl]piperidin-4-yl}-3,3-dimethylurea] stands greater than 5.30; under `CN(C)C(=O)CNc1nc(-c2cccc3c2CCC3O)nc(N2CCOCC2)n1` (stereo not shown) [Compound 1070, 2-((4-(1-hydroxy-2,3-dihydro-1H-inden-4-yl)-6-morpholino-1,3,5-triazin-2-yl)amino)-N,N-dimethylacetamide], less than 5.30; under `Nc1ccc(-c2nc(CO)nc(N3CCOCC3)n2)cn1` [Compound 1071, 1-7-[4-3-(6-16-aminopyridin-3-yl)-6-5-(morpholin-4-yl)-1,3,5-triazin-2-yl]methanol], greater than 5.30.

As to `CN(C)C(=O)c1ccc(Oc2nc(-c3cccc4[nH]ncc34)nc(N3CCOCC3)n2)nc1` [Compound 1072, 6-14-{[4-1-(1H-indazol-4-yl)-6-5-(morpholin-4-yl)-1,3,5-triazin-2-yl]oxy}-N,N-dimethylpyridine-3-carboxamide], the pIC50 was less than 5.30. For `CN(C)C(=O)c1ccc(Oc2nc(-c3cccc4[nH]ncc34)nc(N3CCCOCC3)n2)cc1` [Compound 1073, 4-7-{[4-5-(1H-indazol-4-yl)-6-3-(1,4-oxazepan-4-yl)-1,3,5-triazin-2-yl]oxy}-N,N-dimethylbenzamide], the pIC50 was greater than 5.30. `CS(=O)(=O)N1CCN(C(=O)CNc2nc(-c3ccc(O)nc3)nc(N3CCOCC3)n2)CC1` [Compound 1074, 2-((4-(6-hydroxypyridin-3-yl)-6-morpholino-1,3,5-triazin-2-yl)amino)-1-(4-(methylsulfonyl)piperazin-1-yl)ethanone] gave a pIC50 greater than 5.30. Under `COC1CN(c2nc(Oc3ccc(C(=O)N(C)C)cc3)nc(-c3cccc4[nH]ncc34)n2)C1` [Compound 1075, 4-9-{[4-1-(1H-indazol-4-yl)-6-5-(3-29-methoxyazetidin-1-yl)-1,3,5-triazin-2-yl]oxy}-N,N-dimethylbenzamide] stands less than 5.30.
